According to the NIST ThermoML archive (doi:10.1021/je100839v):
± gives the expanded uncertainty stated by the source. Blank lines part the entries; values can stand above or below the compound they belong to.

Settings: for Glass transition temperature: DTA; for vapor or sublimation pressure: Liquid, Closed cell (Static) method

Glass transition temperature: -62.0 ± 3 °C
Structure (SMILES): CCCCn1cc[n+](C)c1.[I-] [1-butyl-3-methylimidazolium iodide]

Glass transition temperature: -89.0 ± 3 °C
Structure (SMILES): CCCCn1cc[n+](C)c1.N#C[S-] [1-butyl-3-methylimidazolium thiocyanate]

vapor or sublimation pressure (313.85 K): 8.1 ± 3.1 kPa | vapor or sublimation pressure (318.65 K): 10.4 ± 3.2 kPa | vapor or sublimation pressure (323.45 K): 13.2 ± 3.3 kPa | vapor or sublimation pressure (328.35 K): 16.5 ± 3.3 kPa | vapor or sublimation pressure (333.35 K): 20.1 ± 3.5 kPa | vapor or sublimation pressure (338.15 K): 24.9 ± 3.7 kPa | vapor or sublimation pressure (343.05 K): 30.6 ± 3.8 kPa
Structure (SMILES): O [water]

Glass transition temperature: -85.0 ± 3 °C
Structure (SMILES): CCCCn1cc[n+](C)c1.F[B-](F)(F)F [1-butyl-3-methylimidazolium tetrafluoroborate]

Glass transition temperature: -86.0 ± 3 °C
Structure (SMILES): CCOS(=O)(=O)[O-].CCn1cc[n+](C)c1 [1-ethyl-3-methylimidazolium ethyl sulfate]
